Experiments:
[1] = system: ENR+CD organoids (ISC to Paneth cell differentiation); assay: Primary screen: basal (non-stimulated) lysozyme secretion LYZ.NS, 2.5-D 384-well ENR+CD organoid differentiation; format: cell-based, mouse; conditions: primary screen; for Dose.FC.LYZ.NS: FC relative to plate median; for Z.LYZ.NS: standard z score
Excerpt: (§1) High-throughput screening.

ENR+CD organoids = assay: Primary screen: ATP (CellTiter-Glo 3D, CTG) cell number/viability, 2.5-D 384-well ENR+CD organoids; conditions: primary screen; for Dose.FC.CTG: FC relative to plate median; for Z.CTG: standard z score;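 as to all read-outs here: compounds given at plating and again on day 3 over a 6-day differentiation from ENR+CV stem-cell-enriched precursors, ATP measured on day 6, plate median as control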
[2] = system: ENR+CD organoids (ISC to Paneth cell differentiation); assay: Primary screen: CCh-stimulated lysozyme secretion LYZ.S, 2.5-D 384-well ENR+CD organoid differentiation; format: cell-based, mouse; conditions: primary screen, FC relative to plate median
Excerpt: as §1

SMILES	Dose.FC.LYZ.NS ([1]; dose 0.08 uM)	Z.LYZ.NS ([1]; dose 0.08 uM)	Dose.FC.LYZ.NS ([1]; dose 0.40 uM)	Z.LYZ.NS ([1]; dose 0.40 uM)	Dose.FC.LYZ.NS ([1]; dose 2.00 uM)	Z.LYZ.NS ([1]; dose 2.00 uM)	Dose.FC.LYZ.NS ([1]; dose 10.00 uM)	Z.LYZ.NS ([1]; dose 10.00 uM)	Dose.FC.CTG (ENR+CD organoids; dose 0.08 uM)	Dose.FC.CTG (ENR+CD organoids; dose 0.40 uM)	Dose.FC.CTG (ENR+CD organoids; dose 2.00 uM)	Dose.FC.CTG (ENR+CD organoids; dose 10.00 uM)	Dose.FC.LYZ.S ([2]; dose 0.08 uM)	Dose.FC.LYZ.S ([2]; dose 0.40 uM)	Dose.FC.LYZ.S ([2]; dose 2.00 uM)	Dose.FC.LYZ.S ([2]; dose 10.00 uM)	Z.CTG (ENR+CD organoids; dose 0.08 uM)	Z.CTG (ENR+CD organoids; dose 0.40 uM)	Z.CTG (ENR+CD organoids; dose 2.00 uM)	Z.CTG (ENR+CD organoids; dose 10.00 uM)
CC(NC(=O)c1ccccc1/N=C/c1c(O)ccc2ccccc12)c1ccccc1 (stereo not shown) [Sirtinol]	0.095 log2 fold change	0.824	0.000 log2 fold change	0.002	0.061 log2 fold change	0.531	0.078 log2 fold change	0.679	−0.218 log2 fold change	0.009 log2 fold change	−0.120 log2 fold change	−0.078 log2 fold change	0.077 log2 fold change	0.088 log2 fold change	0.028 log2 fold change	0.026 log2 fold change				
Cc1cc2c(cc1CC(=O)c1sccc1S(=O)(=O)Nc1onc(C)c1Cl)OCO2 [Sitaxentan sodium]	0.094 log2 fold change	0.816	−0.052 log2 fold change	−0.455	0.090 log2 fold change	0.782	−0.038 log2 fold change	−0.332	0.095 log2 fold change	−0.200 log2 fold change	−0.096 log2 fold change	−0.100 log2 fold change	−0.017 log2 fold change	−0.028 log2 fold change	0.136 log2 fold change	−0.047 log2 fold change				
Nc1ccc(C(=O)[O-])c(O)c1.[Na+] [Sodium 4-Aminosalicylate]	0.080 log2 fold change	0.695	0.041 log2 fold change	0.354	0.156 log2 fold change	1.354	0.091 log2 fold change	0.796	0.119 log2 fold change	0.204 log2 fold change	0.038 log2 fold change	0.247 log2 fold change	0.162 log2 fold change	0.050 log2 fold change	0.099 log2 fold change	0.143 log2 fold change				
CNC(=O)c1cc(Oc2ccc(NC(=O)Nc3ccc(Cl)c(C(F)(F)F)c3)cc2)ccn1 [Sorafenib]	0.052 log2 fold change	0.457	0.060 log2 fold change	0.520	0.095 log2 fold change	0.830	−0.021 log2 fold change	−0.180	0.032 log2 fold change	0.165 log2 fold change	−0.206 log2 fold change		0.124 log2 fold change	0.164 log2 fold change	0.014 log2 fold change	−0.062 log2 fold change				
CN1CCN(c2nc(C3=C(c4c[nH]c5ccccc45)C(=O)NC3=O)c3ccccc3n2)CC1 [Sotrastaurin]	0.193 log2 fold change	1.678	−0.065 log2 fold change	−0.567	0.014 log2 fold change	0.125	−0.126 log2 fold change	−1.101	0.010 log2 fold change	−0.120 log2 fold change	−0.272 log2 fold change	−0.242 log2 fold change	0.097 log2 fold change	−0.043 log2 fold change	−0.085 log2 fold change	−0.164 log2 fold change				
O=[N+]([O-])c1ccc2c(c1)S(=O)(=O)C=C2 [Stattic]	0.130 log2 fold change	1.131	0.022 log2 fold change	0.189	0.147 log2 fold change	1.276	−0.021 log2 fold change	−0.186	−0.080 log2 fold change	−0.005 log2 fold change	0.033 log2 fold change	−0.025 log2 fold change	0.150 log2 fold change	0.033 log2 fold change	0.082 log2 fold change	−0.019 log2 fold change	−0.191	−0.011	0.078	−0.060
Cc1cn([C@H]2C=C[C@@H](CO)O2)c(=O)[nH]c1=O [Stavudine (d4T)]	0.071 log2 fold change	0.620	0.003 log2 fold change	0.027	0.009 log2 fold change	0.074	−0.095 log2 fold change	−0.828	0.095 log2 fold change	0.147 log2 fold change	0.075 log2 fold change	−0.075 log2 fold change	0.134 log2 fold change	0.001 log2 fold change	−0.003 log2 fold change	−0.120 log2 fold change	0.226	0.351	0.179	−0.179
Cc1ccc(-n2nccn2)c(C(=O)N2CCN(c3nc4cc(Cl)ccc4o3)CC[C@H]2C)c1 [Suvorexant (MK-4305)]	0.204 log2 fold change	1.775	0.123 log2 fold change	1.073	0.123 log2 fold change	1.073	0.077 log2 fold change	0.670	0.192 log2 fold change	0.255 log2 fold change	0.375 log2 fold change	0.250 log2 fold change	0.186 log2 fold change	0.142 log2 fold change	0.101 log2 fold change	0.131 log2 fold change	0.458	0.609	0.895	0.597

Reference: US20220323406A1, “METHODS AND COMPOSITIONS FOR DIFFERENTIATING STEM CELLS” (Massachusetts Institute of Technology, priority 2019, published 2022)
